Source: ChEMBL document CHEMBL3885861, “Open TG-GATES”

Organism: Rattus norvegicus
Assay: Open TG-GATES - Regimen: Single
Type: toxicity, organism-based, Sprague-Dawley
Set-up: regimen Single, gender Male, age 6 weeks
Conditions: in vivo, po, 30 mg/kg, route gavage, dose level Middle; for APTT / Bas / Eos / Fbg / Hb / Ht / Lym / MCH / MCHC / MCV / Mono / Neu / PT / Plat / RBC / Ret / WBC: tissue Blood; for KIDNEY_L / KIDNEY_R / KIDNEY_TOTAL: tissue Kidney; for LIVER: tissue Liver; for A/G / ALP / ALT / AST / BUN / CRE / Ca / Cl / DBIL / GLC / IP / K / LDH / Na / PL / RALB / TBIL / TC / TG / TP / gamma-GTP: tissue Plasma

For `CCCc1cc(=O)[nH]c(=S)[nH]1` [PROPYLTHIOURACIL], the TERMINAL_BW (3 h) was 179.8 g, the APTT (3 h) was 16 s and the Bas (3 h) was 0%. It also gave an Eos (3 h) of 1%, a Fbg (3 h) of 211.4 mg/dL and a Hb (3 h) of 13.2 g/dL. The Ht (3 h) was 40%, the Lym (3 h) was 80.2% and the MCH (3 h) was 22.2 pg. It also gave an MCHC (3 h) of 33%, an MCV (3 h) of 67.2 fL and a Mono (3 h) of 5.6%. It also gave a Neu (3 h) of 13.6%, a PT (3 h) of 12.8 s and a Plat (3 h) of 100.4 x10_4/uL. The RBC (3 h) was 595.4 x10_4/ul, the Ret (3 h) was 10.1% and the WBC (3 h) was 101.6 x10_2/uL. For the same compound, the KIDNEY_L (3 h) was 0.8 g, the KIDNEY_R (3 h) was 0.8 g and the KIDNEY_TOTAL (3 h) was 1.7 g. The LIVER (3 h) was 8.4 g, the A/G (3 h) was 2 and the ALP (3 h) was 1017.6 IU/L. For the same compound, the ALT (3 h) was 32.6 IU/L, the AST (3 h) was 65.4 IU/L and the BUN (3 h) was 12 mg/dL. The CRE (3 h) was 0.4 mg/dL, the Ca (3 h) was 11.2 mg/dL and the Cl (3 h) was 105.2 meq/L. The DBIL (3 h) was 0.042 mg/dL, the GLC (3 h) was 193.6 mg/dL and the IP (3 h) was 10.8 mg/dL. For the same compound, the K (3 h) was 4.4 meq/L, the LDH (3 h) was 86.6 IU/L and the Na (3 h) was 138.2 meq/L. For the same compound, the PL (3 h) was 135 mg/dL, the RALB (3 h) was 3.6 g/dL and the TBIL (3 h) was 0.3 mg/dL. It also gave a TC (3 h) of 77.2 mg/dL, a TG (3 h) of 30.6 mg/dL and a TP (3 h) of 5.5 g/dL. It also gave a gamma-GTP (3 h) of 1.2 IU/L, a TERMINAL_BW (6 h) of 177.6 g and an APTT (6 h) of 16.2 s. The Bas (6 h) was 0%, the Eos (6 h) was 1% and the Fbg (6 h) was 208.8 mg/dL. The Hb (6 h) was 13.2 g/dL, the Ht (6 h) was 39.3% and the Lym (6 h) was 77.2%. It also gave an MCH (6 h) of 22.2 pg, an MCHC (6 h) of 33.5% and an MCV (6 h) of 66.3 fL. The Mono (6 h) was 6.8%, the Neu (6 h) was 15.2% and the PT (6 h) was 12.7 s. It also gave a Plat (6 h) of 107.3 x10_4/uL, an RBC (6 h) of 593.4 x10_4/ul and a Ret (6 h) of 10.5%. The WBC (6 h) was 83.3 x10_2/uL, the KIDNEY_L (6 h) was 0.8 g and the KIDNEY_R (6 h) was 0.9 g. For the same compound, the KIDNEY_TOTAL (6 h) was 1.7 g, the LIVER (6 h) was 8.1 g and the A/G (6 h) was 2. The ALP (6 h) was 892.6 IU/L, the ALT (6 h) was 31.8 IU/L and the AST (6 h) was 63.8 IU/L. For the same compound, the BUN (6 h) was 12.8 mg/dL, the CRE (6 h) was 0.5 mg/dL and the Ca (6 h) was 11.2 mg/dL. It also gave a Cl (6 h) of 105 meq/L, a DBIL (6 h) of 0.062 mg/dL and a GLC (6 h) of 182 mg/dL. For the same compound, the IP (6 h) was 10.8 mg/dL, the K (6 h) was 4.9 meq/L and the LDH (6 h) was 89.6 IU/L. It also gave a Na (6 h) of 138.4 meq/L, a PL (6 h) of 127.4 mg/dL and an RALB (6 h) of 3.7 g/dL. For the same compound, the TBIL (6 h) was 0.3 mg/dL, the TC (6 h) was 70.4 mg/dL and the TG (6 h) was 36.4 mg/dL. It also gave a TP (6 h) of 5.5 g/dL, a gamma-GTP (6 h) of 1.8 IU/L and a TERMINAL_BW (9 h) of 178.7 g. It also gave an APTT (9 h) of 15.7 s, a Bas (9 h) of 0% and an Eos (9 h) of 1.6%. It also gave a Fbg (9 h) of 216 mg/dL, a Hb (9 h) of 13.3 g/dL and a Ht (9 h) of 40%. The Lym (9 h) was 73.4%, the MCH (9 h) was 22.1 pg and the MCHC (9 h) was 33.2%. It also gave an MCV (9 h) of 66.6 fL, a Mono (9 h) of 8.2% and a Neu (9 h) of 17%. For the same compound, the PT (9 h) was 12.7 s, the Plat (9 h) was 102.7 x10_4/uL and the RBC (9 h) was 601.2 x10_4/ul. The Ret (9 h) was 9.8%, the WBC (9 h) was 64.5 x10_2/uL and the KIDNEY_L (9 h) was 0.9 g. For the same compound, the KIDNEY_R (9 h) was 0.9 g, the KIDNEY_TOTAL (9 h) was 1.7 g and the LIVER (9 h) was 7.5 g. It also gave an A/G (9 h) of 1.9, an ALP (9 h) of 878.2 IU/L and an ALT (9 h) of 30.4 IU/L. It also gave an AST (9 h) of 61.6 IU/L, a BUN (9 h) of 12.2 mg/dL and a CRE (9 h) of 0.5 mg/dL. The Ca (9 h) was 10.5 mg/dL, the Cl (9 h) was 106.4 meq/L and the DBIL (9 h) was 0 mg/dL. For the same compound, the GLC (9 h) was 194.2 mg/dL, the IP (9 h) was 10.6 mg/dL and the K (9 h) was 4.7 meq/L. The LDH (9 h) was 92.4 IU/L, the Na (9 h) was 138.8 meq/L and the PL (9 h) was 131 mg/dL. For the same compound, the RALB (9 h) was 3.6 g/dL, the TBIL (9 h) was 0.5 mg/dL and the TC (9 h) was 77.6 mg/dL. The TG (9 h) was 33.8 mg/dL, the TP (9 h) was 5.5 g/dL and the gamma-GTP (9 h) was 1 IU/L. For the same compound, the TERMINAL_BW (24 h) was 189 g, the APTT (24 h) was 16 s and the Bas (24 h) was 0%. It also gave an Eos (24 h) of 1%, a Fbg (24 h) of 206.6 mg/dL and a Hb (24 h) of 13.6 g/dL. For the same compound, the Ht (24 h) was 40.7%, the Lym (24 h) was 78% and the MCH (24 h) was 21.9 pg. The MCHC (24 h) was 33.5%, the MCV (24 h) was 65.2 fL and the Mono (24 h) was 9%. The Neu (24 h) was 12.4%, the PT (24 h) was 12.3 s and the Plat (24 h) was 101.4 x10_4/uL. The RBC (24 h) was 623.4 x10_4/ul, the Ret (24 h) was 9.1% and the WBC (24 h) was 101.7 x10_2/uL. It also gave a KIDNEY_L (24 h) of 0.9 g, a KIDNEY_R (24 h) of 0.9 g and a KIDNEY_TOTAL (24 h) of 1.7 g. For the same compound, the LIVER (24 h) was 9.5 g, the A/G (24 h) was 2 and the ALP (24 h) was 911.4 IU/L. The ALT (24 h) was 40.8 IU/L, the AST (24 h) was 65 IU/L and the BUN (24 h) was 16.8 mg/dL. It also gave a CRE (24 h) of 0.5 mg/dL, a Ca (24 h) of 11 mg/dL and a Cl (24 h) of 106.8 meq/L. The DBIL (24 h) was 0.018 mg/dL, the GLC (24 h) was 185.4 mg/dL and the IP (24 h) was 7.1 mg/dL. The K (24 h) was 5 meq/L, the LDH (24 h) was 90.6 IU/L and the Na (24 h) was 139.8 meq/L. It also gave a PL (24 h) of 157.4 mg/dL, an RALB (24 h) of 3.8 g/dL and a TBIL (24 h) of 0.3 mg/dL. For the same compound, the TC (24 h) was 85.2 mg/dL, the TG (24 h) was 112 mg/dL and the TP (24 h) was 5.7 g/dL. It also gave a gamma-GTP (24 h) of 1.2 IU/L.
